Laboratory results: patent US12098148B2, “Therapeutic compounds” (C4X Discovery Limited, priority 2018, dated 2024)

Columns and labels:
[1] = molecular target: human KEAP1 (N-term, residues 321-609) (Homo sapiens, UniProt Q14145); experiment: biochemical;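 further: fluorescence polarization competition assay of Kelch domain binding to NRF2, 12-point 1:3 dilution series from 10 µM, read after 1 h at room temperature, floor 10 nM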
[2] = test system: NQO1 mRNA in BEAS-2B cells; experiment: Beas2B NQO1 mRNA cell based assay; set-up: species or system human; conditions: Homo sapiens, BEAS-2B, 24 h, 24 h compound treatment, increase in NQO1 mRNA vs vehicle (0.1% DMSO), read-out: EC50
How it was run: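 BEAS-2B human bronchial epithelial cells exposed to compound for 24 h at 37 °C, 5% CO2. NQO1 mRNA measured by one-step TaqMan RT-qPCR on unpurified lysates, normalized to β-actin; relative expression by ΔΔCT method.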

Sequence of human KEAP1 (N-term, residues 321-609) (Q14145 321-609): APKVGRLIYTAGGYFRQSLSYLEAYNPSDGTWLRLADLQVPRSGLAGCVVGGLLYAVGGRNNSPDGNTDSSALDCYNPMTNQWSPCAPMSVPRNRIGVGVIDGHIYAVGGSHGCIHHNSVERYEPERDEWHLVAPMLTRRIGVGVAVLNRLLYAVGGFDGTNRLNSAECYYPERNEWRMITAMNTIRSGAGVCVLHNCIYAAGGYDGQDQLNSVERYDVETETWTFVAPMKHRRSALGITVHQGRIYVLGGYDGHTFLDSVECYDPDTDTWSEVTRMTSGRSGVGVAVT

| Structure (SMILES) | IC50 [1] [nM] | EC50 [2] [nM] |
| --- | --- | --- |
| C[C@]1(C(=O)O)CCCC[C@H]1C(=O)N1CCc2c(Cl)ccc(O[C@H]3CCN(S(C)(=O)=O)C3)c2[C@H]1CN1CC2(CC2)CC1=O [Example 187, (1S,2R)-2-((S)-5-chloro-8-(((S)-1-(methylsulfonyl)pyrrolidin-3-yl)oxy)-1-((6-oxo-5-azaspiro[2.4]heptan-5-yl)methyl)-1,2,3,4-tetrahydroisoquinoline-2-carbonyl)-1-methylcyclohexane-1-carboxylic acid] | 6 | 43 |
| CC(=O)N1CC[C@H](Oc2ccc(Cl)c3c2[C@@H](CN2CC4(CC4)CC2=O)N(C(=O)[C@@H]2CCCC[C@]2(C)C(=O)O)CC3)C1 [Example 188, (1S,2R)-2-((S)-8-(((S)-1-acetylpyrrolidin-3-yl)oxy)-5-chloro-1-((6-oxo-5-azaspiro [2.4]heptan-5-yl)methyl)-1,2,3,4-tetrahydroisoquinoline-2-carbonyl)-1-methylcyclohexane-1-carboxylic acid] | 4.9 | 7.9 |
| C[C@]1(C(=O)O)CCCC[C@H]1C(=O)N1CCc2c(Cl)ccc(OCc3nnn4c3COCC4)c2[C@H]1CN1CC2(CC2)CC1=O [Example 189, (1S,2R)-2-((S)-5-chloro-8-((6,7-dihydro-4H-[1,2,3]triazolo[5,1-c][1,4]oxazin-3-yl)methoxy)-1-((6-oxo-5-azaspiro[2.4]heptan-5-yl)methyl)-1,2,3,4-tetrahydroisoquinoline-2-carbonyl)-1-methylcyclohexane-1-carboxylic acid] | 5 | 0.27 |
| Cn1nnc(COc2cccc3c2[C@@H](CN2CCCC2=O)N(C(=O)[C@@H]2CCCC[C@]2(C)C(=O)O)CC3)c1C(F)(F)F [Example 190, (1S,2R)-1-methyl-2-((S)-8-((1-methyl-5-(trifluoromethyl)-1H-1,2,3-triazol-4-yl)methoxy)-1-((2-oxopyrrolidin-1-yl)methyl)-1,2,3,4-tetrahydroisoquinoline-2-carbonyl)cyclohexane-1-carboxylic acid] | 5.6 | 8.6 |
| Cn1nnc(COc2ccc(Br)c3c2[C@@H](CN2CCCC2=O)N(C(=O)[C@@H]2CCCC[C@]2(C)C(=O)O)CC3)c1C(F)(F)F [Example 191, (1S,2R)-2-((S)-5-bromo-8-((1-methyl-5-(trifluoromethyl)-1H-1,2,3-triazol-4-yl)methoxy)-1-((2-oxopyrrolidin-1-yl)methyl)-1,2,3,4-tetrahydroisoquinoline-2-carbonyl)-1-methylcyclohexane-1-carboxylic acid] | 5.2 | 2.1 |
| C[C@]1(C(=O)O)CCCC[C@H]1C(=O)N1CCc2c(Cl)ccc(OCc3nnn(C4COC4)c3C(F)F)c2[C@H]1CN1CC2(CC2)CC1=O [Example 192, (1S,2R)-2-((S)-5-chloro-8-((5-(difluoromethyl)-1-(oxetan-3-yl)-1H-1,2,3-triazol-4-yl)methoxy)-1-((6-oxo-5-azaspiro[2.4]heptan-5-yl)methyl)-1,2,3,4-tetrahydroisoquinoline-2-carbonyl)-1-methylcyclohexane-1-carboxylic acid] | 8.5 | 3.8 |
| C[C@@H]1CCC(=O)N1C[C@@H]1c2c(OCc3nnn(C)c3C(F)F)ccc(Cl)c2CCN1C(=O)[C@@H]1CCCC[C@]1(C)C(=O)O [Example 194, (1S,2R)-2-((S)-5-chloro-8-((5-(difluoromethyl)-1-methyl-1H-1,2,3-triazol-4-yl)methoxy)-1-(((R)-2-methyl-5-oxopyrrolidin-1-yl)methyl)-1,2,3,4-tetrahydroisoquinoline-2-carbonyl)-1-methylcyclohexane-1-carboxylic acid] | 7.9 | 12 |
| C[C@H]1CCC(=O)N1C[C@@H]1c2c(OCc3nnn(C)c3C(F)F)ccc(Cl)c2CCN1C(=O)[C@@H]1CCCC[C@]1(C)C(=O)O [Example 195, (1S,2R)-2-((S)-5-chloro-8-((5-(difluoromethyl)-1-methyl-1H-1,2,3-triazol-4-yl)methoxy)-1-(((S)-2-methyl-5-oxopyrrolidin-1-yl)methyl)-1,2,3,4-tetrahydroisoquinoline-2-carbonyl)-1-methylcyclohexane-1-carboxylic acid] | 13 | 6.8 |
| C[C@]1(C(=O)O)CCCC[C@H]1C(=O)N1CCc2c(Cl)ccc(OCc3nnn4c3CCCC4)c2[C@H]1CN1CCOCC1=O [Example 196] | 5.6 | 0.97 |
| Cn1nnc(COc2ccc(Br)c3c2[C@@H](CN2CC4(CC4)CC2=O)N(C(=O)[C@@H]2CCCC[C@]2(C)C(=O)O)CC3)c1C(F)F [Example 198, (1S,2R)-2-((S)-5-bromo-8-((5-(difluoromethyl)-1-methyl-1H-1,2,3-triazol-4-yl)methoxy)-1-((6-oxo-5-azaspiro [2.4]heptan-5-yl)methyl)-1,2,3,4-tetrahydroisoquinoline-2-carbonyl)-1-methylcyclohexane-1-carboxylic acid] | 5.2 | 0.24 |
| Cn1nnc(COc2ccc(Cl)c3c2[C@@H](CN2CC4(CC4)CC2=O)N(C(=O)[C@@H]2CCCC[C@]2(C)C(=O)O)CC3)c1C1COC1 [Example 199, (1S,2R)-2-((S)-5-chloro-8-((1-methyl-5-(oxetan-3-yl)-1H-1,2,3-triazol-4-yl)methoxy)-1-((6-oxo-5-azaspiro [2.4]heptan-5-yl)methyl)-1,2,3,4-tetrahydroisoquinoline-2-carbonyl)-1-methylcyclohexane-1-carboxylic acid] | 5.3 | 0.34 |
| Cn1nnc(COc2ccc(Cl)c3c2[C@@H](CN2CCOCC2=O)N(C(=O)[C@@H]2CCCC[C@]2(C)C(=O)O)CC3)c1C(F)F [Example 200, (1S,2R)-2-((S)-5-chloro-8-((5-(difluoromethyl)-1-methyl-1H-1,2,3-triazol-4-yl)methoxy)-1-((3-oxomorpholino)methyl)-1,2,3,4-tetrahydroisoquinoline-2-carbonyl)-1-methylcyclohexane-1-carboxylic acid] | 5.1 | 1.2 |
| Cn1nnc(COc2ccc(Cl)c3c2[C@@H](CN2CC4(CC4)CC2=O)N(C(=O)[C@@H]2CC=CC[C@]2(C)C(=O)O)CC3)c1C(F)F [Example 201, (1S,6R)-6-((S)-5-chloro-8-((5-(difluoromethyl)-1-methyl-1H-1,2,3-triazol-4-yl)methoxy)-1-((6-oxo-5-azaspiro[2.4]heptan-5-yl)methyl)-1,2,3,4-tetrahydroisoquinoline-2-carbonyl)-1-methylcyclohex-3-ene-1-carboxylic acid] | 3.3 | 0.33 |
| Cn1nnc(COc2c(F)cc(Cl)c3c2[C@@H](CN2CC4(CC4)CC2=O)N(C(=O)[C@@H]2CCCC[C@]2(C)C(=O)O)CC3)c1C(F)F [Example 203, (1S,2R)-2-((S)-5-chloro-8-((5-(difluoromethyl)-1-methyl-1H-1,2,3-triazol-4-yl)methoxy)-7-fluoro-1-((6-oxo-5-azaspiro[2.4]heptan-5-yl)methyl)-1,2,3,4-tetrahydroisoquinoline-2-carbonyl)-1-methylcyclohexane-1-carboxylic acid] | 6.2 | 0.4 |
| C[C@]1(C(=O)O)CCCC[C@H]1C(=O)N1CCc2c(Cl)ccc(OCc3ncsc3C(F)F)c2[C@H]1CN1CC2(CC2)CC1=O [Example 204, (1S,2R)-2-((S)-5-chloro-8-((5-(difluoromethyl)thiazol-4-yl)methoxy)-1-((6-oxo-5-azaspiro[2.4]heptan-5-yl)methyl)-1,2,3,4-tetrahydroisoquinoline-2-carbonyl)-1-methylcyclohexane-1-carboxylic acid] | 6.9 | 13 |
| Cc1scnc1COc1ccc(Cl)c2c1[C@@H](CN1CC3(CC3)CC1=O)N(C(=O)[C@@H]1CCCC[C@]1(C)C(=O)O)CC2 [Example 205, (1S,2R)-2-((S)-5-chloro-8-((5-methylthiazol-4-yl)methoxy)-1-((6-oxo-5-azaspiro[2.4]heptan-5-yl)methyl)-1,2,3,4-tetrahydroisoquinoline-2-carbonyl)-1-methylcyclohexane-1-carboxylic acid] | 5.5 | 19 |
| Cn1ncc(COc2ccc(Cl)c3c2[C@@H](CN2CC4(CC4)CC2=O)N(C(=O)[C@@H]2CCCC[C@]2(C)C(=O)O)CC3)n1 [Example 206, (1S,2R)-2-((S)-5-chloro-8-((2-methyl-2H-1,2,3-triazol-4-yl)methoxy)-1-((6-oxo-5-azaspiro[2.4]heptan-5-yl)methyl)-1,2,3,4-tetrahydroisoquinoline-2-carbonyl)-1-methylcyclohexane-1-carboxylic acid] | 6.6 | 34 |
| Cn1nnc(COc2ccc(Cl)c3c2[C@@H](CN2CC4(CC4)CC2=O)N(C(=O)[C@@H]2C[C@@H]4C[C@@H]4C[C@]2(C)C(=O)O)CC3)c1C(F)F [Example 207, (1R,3S,4R,6S)-4-((S)-5-chloro-8-((5-(difluoromethyl)-1-methyl-1H-1,2,3-triazol-4-yl)methoxy)-1-((6-oxo-5-azaspiro[2.4]heptan-5-yl)methyl)-1,2,3,4-tetrahydroisoquinoline-2-carbonyl)-3-methylbicyclo[4.1.0]heptane-3-carboxylic acid] | 5.1 | 0.89 |
| Cn1nnc(COc2ccc(Cl)c3c2[C@@H](CN2CC4(CC4)CC2=O)N(C(=O)[C@@H]2C[C@H]4C[C@H]4C[C@]2(C)C(=O)O)CC3)c1C(F)F [Example 208, (1S,3S,4R,6R)-4-((S)-5-chloro-8-((5-(difluoromethyl)-1-methyl-1H-1,2,3-triazol-4-yl)methoxy)-1-((6-oxo-5-azaspiro[2.4]heptan-5-yl)methyl)-1,2,3,4-tetrahydroisoquinoline-2-carbonyl)-3-methylbicyclo[4.1.0]heptane-3-carboxylic acid] | 580 | 3300 |
